Where two headings read alike, the source gives them in different places.
Assay: Titration of dispersed solid with sodium hydroxide (pKa from titration curve)
Format: physicochemical
Settings: for pKa: dispersion of the solid in deionized water
Experimental: The Comparative Compound (1.0 g) was dispersed in deionized water (199 mL) using a shear mixer/emulsifier (Silverson Model L4R, Silverson Machines, Ltd., Waterside, Chesham, Bucks, England) for approximately 5 minutes. Cresol red indicator (0.04 weight percent in water; 4 drops) was added to aid in end point detection. Samples were titrated (using a 50 mL buret with 0.1 mL graduation) with rapid stirring to maintain suspension of dispersed solid in the liquid medium (0.1 N analytical standard grade sodium hydroxide from Mallinckrodt Baker, Phillipsburg, N.J.) over a period of 1-3 hours. The dispersion became clear after 2 equivalents of base had been added, indicating conversion of the Comparative Compound to a compound corresponding to the righthand structure above. […] At higher concentrations, a liquid crystalline phase potentially useful for encapsulation of guest molecules is formed between a pH of about 7 and a pH of about 8. This phase forms at a steep end point transition of the titration curve, where even a small addition of base caused a significant change in pH (indicating a need for careful monitoring and control of the amount of base addition for use of the Comparative Compound in, for example, the encapsulation of pH-sensitive guest molecules).
(§1) Folic acid (1.0 g) was dispersed in deionized water (199 mL) using a Silverson L4R shear mixer/emulsifier for approximately 5 minutes. Cresol red indicator (0.04 weight percent in water; 4 drops) was added to aid in end point detection. Samples were titrated (using a 50 mL buret with 0.1 mL graduation) with rapid stirring to maintain suspension of dispersed solid in the liquid medium during the addition of base (0.1 N analytical standard grade sodium hydroxide from Mallinckrodt Baker, Phillipsburg, N.J.). The dispersion became clear after 2 equivalents of base had been added.
as §1, with “(2.0” for “(1.0”, “(198” for “(199”, “(0.2” for “(0.1”

[1] = 0.5 weight percent dispersion in deionized water, 0.1 N NaOH

SMILES: Nc1nc(=O)c2nc(CNc3ccc(C(=O)N[C@@H](CCC(=O)O)C(=O)O)cc3)cnc2[nH]1 [Folic acid]
- pKa (0.5 weight percent dispersion in deionized water, 0.1 N NaOH, read-out: first pKa): ~5.8
- pKa (0.5 weight percent dispersion in deionized water, 0.1 N NaOH, read-out: second pKa): ~5.8
- pKa (1 weight percent dispersion in deionized water, 0.2 N NaOH, read-out: first pKa): ~6.1
- pKa (1 weight percent dispersion in deionized water, 0.2 N NaOH, read-out: second pKa): ~6.1

SMILES: Cn1cc[n+](-c2nc(Nc3ccc(C(=O)O)cc3)nc(Nc3ccc(C(=O)O)cc3)n2)c1.[Cl-] [Comparative Compound]
- first pKa [1]: about 3.2
- second pKa [1]: about 5.8

From patent US20100028420A1, “CONTROLLED RELEASE COMPOSITION AND PROCESS” (3M Innovative Properties Company, priority 2006, published 2010)
